# Measured values reported in PubChem BioAssay (NCI).
#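 Grown in 96-well plates, cells were treated for 48 hours with each compound at five concentrations. Insufficient inhibition: endpoint recorded as highest concentration tested. At the GI50, growth is halved. Definition used: TGI = concentration required for complete inhibition of growth.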 *1 amine or outer side, *2 acyl side, *3 side chain or, on linkers, in order; H or OH if unused. Where a SMILES comes first, the peptide text is derived from it. Bridges are numbered along the chain shown (N, C = ends). [ ]: non-standard residue; d: D form. The star is where a group is joined. ξ: configuration not given here. X34 = O=C(C(CCCCNO[*:3])N[*:1])[*:2]; Fmoc = O=C(OCC1c2ccccc2-c2ccccc21)*; ξW = NC(Cc1c[nH]c2ccccc12)C(=O)O; ξP = O=C(O)C1CCCN1
# Experiments:
# Assay in all cases: NCI anticancer screen, dose series, 48 h
# [1] = test system: MOLT-4 leukemia
# [2] = test system: A498 renal
# [3] = test system: T-47D breast
# [4] = test system: SK-OV-3 ovarian
# [5] = test system: HCT-116 colon
# [6] = test system: COLO 205 colon
# [7] = test system: UO-31 renal
# [8] = test system: MCF7 breast
# [9] = test system: HOP-62 NSCLC
# [10] = test system: ACHN renal
Structure (SMILES),TGI [1] [µM],TGI [2] [µM],TGI [3] [µM],TGI [4] [µM],TGI [5] [µM],TGI [6] [µM],TGI [7] [µM],TGI [8] [µM],TGI [9] [µM],TGI [10] [µM],GI50 [9] [µM]
Cc1nc(-c2ccc([N+](=O)[O-])cc2)cn2c1nc1ccccc12,> 100,> 100,> 100,> 100,> 100,> 100,> 100,> 100,> 100,–,–
COCOC1/C=C/CCCCC2=C(C)C=C(C1)O2 (stereo not given),> 100,> 100,> 100,> 100,> 100,> 100,> 100,> 100,> 100,> 100,–
Cc1c(F)c(N)c2c(=O)cc(-c3ccc(NC(=O)CN(C)C)c(F)c3)oc2c1F,> 71.8,5.77,> 100,> 100,> 100,> 100,> 100,> 66.1,> 100,> 100,> 100
COc1cc(/C=C2/C(=O)N(C(=O)c3ccccc3O)N=C2C)cc(OC)c1OC,> 100,0.7,> 100,> 100,> 29,> 100,6.81,34.9,–,> 100,–
Cc1c(-c2nc3ccccc3[nH]2)c(=O)n(-c2ccccc2)n1C,> 100,–,> 100,> 100,> 100,> 100,> 100,> 100,> 100,> 100,–
Cc1nnc(Nc2ccccc2)o1,> 100,–,> 100,> 100,> 100,> 100,> 100,> 100,–,> 100,–
O=C(O)c1c2c(cc3c1CC1(Cc4ccccc4C1)C3)CCC2,> 100,> 100,> 100,> 100,–,> 100,> 100,> 100,> 100,> 100,–
COc1ccc(-n2c(=O)c3[nH]cnc3n(-c3ccc(OC)cc3)c2=S)cc1,> 100,> 100,> 100,> 100,> 100,> 100,> 100,> 100,> 100,> 100,–
CCCc1cc(=O)c2c(C)c3[nH]c4ccc(Cl)cc4c3c(C)c2[nH]1,> 100,2.92,3.88,–,3.09,3.89,3.34,3.37,6.15,3.71,–
NCC1CCN(c2nc3ccccc3c3c2CCCC3)CC1,11.7,25.7,8.81,29.6,9.91,3.13,11.9,15,32.1,25.3,–
CN(C)CCCOC(=O)C(c1ccccc1)C1(O)CCSCC1 (stereo not given),> 100,> 100,> 100,> 100,> 100,> 100,> 100,> 100,> 100,> 100,–
CC(C)OP(=O)(OC(C)C)c1c(Nc2ccccc2)n[nH]c1N,> 100,> 100,> 100,> 100,–,> 100,> 100,> 100,> 100,> 100,–
COc1cccc(-c2cc(=O)c3ccccc3o2)c1N,> 100,–,> 57.3,> 100,> 100,> 100,> 100,> 100,> 100,> 100,–
CN1C(=O)N(c2ccccc2)C2(CCN(CC3COc4ccccc4O3)CC2)C1=O (stereo not given),> 100,> 100,> 100,–,> 100,> 100,> 100,> 100,> 100,> 100,–
Cc1nc2c(sc(=S)n2-c2ccccc2)c2nc3ncccc3n12,> 100,> 100,> 100,> 100,> 100,> 100,> 100,> 100,90.3,> 100,–
COc1ccc(C2CC(c3c(O)ccc4ccccc34)=NN2c2ccc([N+](=O)[O-])cc2[N+](=O)[O-])cc1OC (stereo not given),21.5,35.9,79.7,> 88,> 100,49,97.4,> 91.7,> 71.7,92.2,–

Structure (SMILES),TGI [1] [µM],TGI [2] [µM],TGI [3] [µM],TGI [4] [µM],TGI [5] [µM],TGI [6] [µM],TGI [7] [µM],TGI [8] [µM],TGI [9] [µM],TGI [10] [µM],GI50 [9] [µM]
CC(C)(C)c1ccc2c(c1)CNCCNCc1cc(C(C)(C)C)ccc1OCC1(CO2)COc2ccc(C(C)(C)C)cc2CNCCNCc2cc(C(C)(C)C)ccc2OC1,0.504,2.83,3.73,–,2.99,2.29,3.25,–,2.66,2.98,–
C=C(C)C12CC(COC(=O)c3ccccc3)C34OC5(OC1C3C1OC1(CO)C(O)C1(O)C(OC(=O)c3ccccc3)C(C)C(C(C)CCCCCCC5O)C14)O2 (stereo not given),–,> 100,> 100,> 100,> 100,24.4,> 100,> 100,–,> 100,–
COc1ccc(-c2cc(-c3ccco3)c(C#N)c(=S)n2C2OC(COC(C)=O)C(OC(C)=O)C(OC(C)=O)C2OC(C)=O)cc1 (stereo not given),> 100,–,21.7,26.8,22.8,16.2,27.2,> 100,8.88,19.4,–
O=C(NNC(=S)Nc1ccc(Cl)cc1)c1cc(-c2ccccc2)nc2ccccc12,27.7,–,11.6,19.8,13.5,18.2,18.1,17.3,19.6,22.7,–
COc1cc(O)c(/C=N/N=C(\N)NO)c(OC)c1,–,> 10,> 10,> 10,> 10,> 10,> 10,> 10,> 10,> 10,–
COC(=O)C(/C(=N/NC(N)=O)C(=O)Nc1ccc(C)cc1)c1nc2ccc([N+](=O)[O-])cc2[nH]c1=O (stereo not given),> 100,> 100,> 100,> 100,> 100,–,–,> 100,> 100,–,–
OCC1CCCCCCCCCCC12SCCCS2 (stereo not given),> 100,–,> 100,> 100,> 100,> 100,> 100,> 100,> 100,> 100,–
Nc1ccc2nc(-c3ccccn3)c(-c3ccccn3)nc2c1,> 100,> 100,> 100,–,> 100,> 100,> 100,> 100,–,> 100,–
COc1cc(-c2cc(=O)c3cc4c(cc3[nH]2)OCO4)cc(OC)c1O,> 10,–,> 10,> 10,> 10,> 10,> 10,> 10,> 10,> 10,–
O=C(Nc1ccc(Br)cc1)c1c(-c2ccccc2)c2ccc(O)cc2oc1=O,> 10,> 10,> 10,> 10,–,> 10,> 10,> 10,> 10,> 10,–
Nc1cc(CO)cc(Nc2nc3ccc(Cl)cc3c3[nH]c4ccccc4c23)c1,32.2,–,20.8,22.2,25.4,11.6,11.6,3.92,27.6,15,–
NC(=O)CNC(=O)C1CCCN1C(=O)C1CCCCNOC(=O)CC[C@@H](NC(=O)OCC2c3ccccc3-c3ccccc32)C(=O)NC(Cc2c[nH]c3ccccc23)C(=O)N1 (stereo not given in full) (Fmoc-[dE][ξW][X34][ξP]G-NH2; ester 1-3),> 100,–,> 100,> 100,> 100,> 100,> 100,> 100,> 100,> 100,–
O=C(O)CN(CCNC(=O)OCC1c2ccccc2-c2ccccc21)CCNC(=O)OCC1c2ccccc2-c2ccccc21,49.3,–,49.9,70.6,31.9,40.7,37.5,40.2,44.7,35.1,–
CC(=O)OCC(C)C1=C(O)C(=O)C2(C)C/C=C(/C)CC/C=C(\C)CCC(O)C(C)CCC12 (stereo not given),28.6,36,14.9,–,32.8,31.1,27.2,44.2,32.8,30.9,–
CC(O[Si](c1ccccc1)(c1ccccc1)C(C)(C)C)[C@H](NC(=O)OC(C)(C)C)C(=O)O[Si](c1ccccc1)(c1ccccc1)C(C)(C)C (stereo not given in full),53.1,–,25.7,30,23.7,31.3,26.3,48.6,34.2,23.9,–
NC(=O)N/N=C(\Cc1nc2ccc(Cl)cc2[nH]c1=O)C(=O)Nc1ccc(Cl)cc1Cl,> 100,> 100,> 100,> 100,> 100,> 100,> 100,> 100,–,> 100,–
